According to patent publication US11603377B2, “MTORC1 modulators and uses thereof” (Aeovian Pharmaceuticals, Inc., priority 2020, dated 2023):

Legend:
[1] = target: mTORC2 (Homo sapiens (Human), UniProt P42345+P62942); assay: mTORC2 inhibition, AlphaLISA of Phospho-AKT (pAKT pS473) in PC3 cells; format: cell-based
[2] = target: FKBP51 / FRB ternary complex (Homo sapiens (Human), UniProt P42345+Q13451); assay: SPR assay to characterize ternary complex formation with FKBP51 (FRB binding to rapalog-saturated FKBP51); settings: FRB dilutions with 100 nM rapalog on immobilized FKBP51
Summary of the method: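 SPR with biotinylated avi-FKBP51 on streptavidin chip (~200 RU); FRB (0.00011-20 μM, 3-fold series) injected with 100 nM rapalog, A-B-A mode keeping FKBP saturated with rapalog.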

[3] = target: mTORC1 (Homo sapiens (Human), UniProt P42345+P62942); assay: mTORC1 inhibition, AlphaLISA of Phospho-p70 S6 kinase (p70S6K pT389) in PC-3 cells; format: cell-based; settings: inhibition of p70S6K pT389 levels
[4] = target: FKBP12 / FRB ternary complex (Homo sapiens (Human), UniProt P42345+P62942); assay: SPR assay to characterize ternary complex formation with FKBP12 (FRB binding to rapalog-saturated FKBP12); settings: FRB dilutions with 100 nM rapalog on immobilized FKBP12
Summary of the method: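 Biotinylated avi-FKBP12 immobilized (~100 RU) on streptavidin chip; A-B-A injections kept FKBP12 saturated with 100 nM rapalog while FRB (0.00011–20 μM, 3-fold, 12 points) was injected 120 s.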

[5] = target: FKBP12 (Homo sapiens (Human), UniProt P62942); assay: SPR assay to determine binding affinity to FKBP12 (direct binding); settings: immobilized biotinylated avi-FKBP12
[6] = target: FKBP51 (Homo sapiens (Human), UniProt Q13451); assay: SPR assay to determine binding affinity to FKBP51 (direct binding); settings: immobilized biotinylated avi-FKBP51
Summary of the method: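 Biotinylated avi-FKBP51 captured on streptavidin chip to about 2000 RU. Compounds injected at 0.5-1000 nM (8 points, 3-fold) for 120 s contact and 3600 s dissociation in 50 mM HEPES pH 7.5, 150 mM NaCl, 2 mM MgCl2, 1 mM DTT, 0.05% Tween-20, 1% DMSO.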

Chain of FKBP12 (P62942 whole entry): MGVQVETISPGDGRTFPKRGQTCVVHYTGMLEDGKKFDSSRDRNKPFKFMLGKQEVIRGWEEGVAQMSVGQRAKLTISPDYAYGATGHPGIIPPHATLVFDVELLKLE
Chain of FKBP51 (Q13451 whole entry): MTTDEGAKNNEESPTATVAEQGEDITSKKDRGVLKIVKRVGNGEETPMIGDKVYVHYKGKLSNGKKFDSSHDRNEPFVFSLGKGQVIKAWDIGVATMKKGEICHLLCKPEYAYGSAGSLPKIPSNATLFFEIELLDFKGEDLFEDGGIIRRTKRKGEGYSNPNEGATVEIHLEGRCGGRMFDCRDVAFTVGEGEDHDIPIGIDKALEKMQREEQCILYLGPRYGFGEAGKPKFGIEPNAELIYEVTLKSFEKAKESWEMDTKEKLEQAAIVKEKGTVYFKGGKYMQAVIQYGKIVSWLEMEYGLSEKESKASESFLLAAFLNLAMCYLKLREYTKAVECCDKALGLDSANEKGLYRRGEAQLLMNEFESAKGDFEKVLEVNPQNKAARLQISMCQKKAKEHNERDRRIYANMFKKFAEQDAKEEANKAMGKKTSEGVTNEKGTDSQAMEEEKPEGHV

Row | Structure (SMILES) | Kd [2] [nM] | IC50 [3] [nM] | Kd [4] [nM] | Kd [5] [nM] | Kd [6] [nM] | mTORC2 % inhibition at 1 uM [1]
1 | COC1CC(CC(C)C2CC(=O)C(C)C=C(C)C(O)C(OC)C(=O)C(C)CC(C)C=CC=CC=C(C)C(OC3CC3)CC3CCC(C)C(O)(O3)C(=O)C(=O)N3CCCCC3C(=O)O2)CCC1OCCCO (stereo not drawn) [Compound 53] | > 800 | 0.1 to 0.8 | < 300 | 0.3 to 1 | > 100 | C (C≥40% and less than 60% inhibition at 1 uM)
2 | COC1CC(CC(C)C2CC(=O)C(C)C=C(C)C(O)C(OC)C(=O)C(C)CC(C)C=CC=CC=C(C)C(OCC3CC3)CC3CCC(C)C(O)(O3)C(=O)C(=O)N3CCCCC3C(=O)O2)CCC1OCCO (stereo not drawn) [Compound 54] | > 800 | 0.1 to 0.8 | < 300 | > 1 | > 100 | B (B>20% and less than 40% inhibition at 1 uM)
3 | CO[C@@H]1C[C@H](C[C@@H](C)[C@@H]2CC(=O)[C@H](C)/C=C(\C)[C@H](O)[C@@H](OC)C(=O)[C@H](C)C[C@H](C)/C=C/C=C/C=C(\C)[C@@H](OCCC3COC3)C[C@@H]3CC[C@@H](C)[C@@](O)(O3)C(=O)C(=O)N3CCCC[C@H]3C(=O)O2)CC[C@H]1O [Compound 55] | > 800 | 0.1 to 0.8 | 300 to 800 | < 0.3 | > 100 | B (B>20% and less than 40% inhibition at 1 uM)
4 | CCOC(=O)COC1CCC(CC(C)C2CC(=O)C(C)C=C(C)C(O)C(OC)C(=O)C(C)CC(C)C=CC=CC=C(C)C(OCCOC)CC3CCC(C)C(O)(O3)C(=O)C(=O)N3CCCCC3C(=O)O2)CC1OC (stereo not drawn) [Compound 56] | > 800 | 0.1 to 0.8 | 300 to 800 | < 0.3 | > 100 | C (C≥40% and less than 60% inhibition at 1 uM)
5 | COCCOC1CC2CCC(C)C(O)(O2)C(=O)C(=O)N2CCCCC2C(=O)OC(C(C)CC2CCC(OCC(=O)O)C(OC)C2)CC(=O)C(C)C=C(C)C(O)C(OC)C(=O)C(C)CC(C)C=CC=CC=C1C (stereo not drawn) [Compound 57] | > 800 | > 0.8 | 300 to 800 | > 1 | 10 to 100 | B (B>20% and less than 40% inhibition at 1 uM)
6 | COC1C[C@H]2CC[C@H](C)[C@](O)(O2)C(=O)C(=O)N(C)C(C)C(=O)OC([C@H](C)C[C@@H]2CC[C@@H](OCCCS(C)(=O)=O)[C@H](OC)C2)CC(=O)C(C)/C=C(\C)C(O)C(OC)C(=O)C(C)CC/C=C/C=C/C=C/1C (stereo partly drawn) [Compound 59] | 300 to 800 | < 0.1 | < 300 | < 0.3 | 10 to 100 | D (D≥60% inhibition at 1 uM)
7 | CO[C@@H]1C[C@H](C[C@@H](C)[C@@H]2CC(=O)[C@H](C)/C=C(\C)[C@@H](O)[C@@H](OC)C(=O)[C@H](C)C[C@H](C)/C=C/C=C/C=C(\C)[C@@H](OCC3CC3)C[C@@H]3CC[C@@H](C)[C@@](O)(O3)C(=O)C(=O)N3CCCC[C@H]3C(=O)O2)CC[C@H]1OCCCS(C)(=O)=O [Compound 60] | > 800 | 0.1 to 0.8 | < 300 | > 1 | > 100 | B (B>20% and less than 40% inhibition at 1 uM)

The next lines start with results.

Row | Kd [2] [nM] | IC50 [3] [nM] | Kd [4] [nM] | Kd [5] [nM] | Kd [6] [nM] | Structure (SMILES) | mTORC2 % inhibition at 1 uM [1]
8 | > 800 | < 0.1 | < 300 | < 0.3 | > 100 | COCCO[C@H]1C[C@@H]2CC[C@@H](C)[C@@](O)(O2)C(=O)C(=O)N2CCCC[C@H]2C(=O)O[C@H]([C@H](C)C[C@@H]2CC[C@@H](OCCCS(C)(=O)=O)[C@H](OC)C2)CC(=O)[C@H](C)/C=C(\C)[C@@H](O)[C@@H](OC)C(=O)[C@H](C)C[C@H](C)/C=C/C=C/C=C/1C [Compound 61] | B (B>20% and less than 40% inhibition at 1 uM)
9 | > 800 | > 0.8 | < 300 | > 1 | > 100 | CO[C@@H]1C[C@H](C[C@@H](C)[C@@H]2CC(=O)[C@H](C)/C=C(\C)[C@@H](O)[C@@H](OC)C(=O)[C@H](C)C[C@H](C)/C=C/C=C/C=C(\C)[C@@H](OCC3CCC3)C[C@@H]3CC[C@@H](C)[C@@](O)(O3)C(=O)C(=O)N3CCCC[C@H]3C(=O)O2)CC[C@H]1OCCCS(C)(=O)=O [Compound 62] | C (C≥40% and less than 60% inhibition at 1 uM)
10 | < 300 | 0.1 to 0.8 | < 300 | 0.3 to 1 | > 100 | CO[C@@H]1C[C@H](C[C@@H](C)[C@@H]2CC(=O)[C@H](C)/C=C(\C)[C@@H](O)[C@@H](OC)C(=O)[C@H](C)C[C@H](C)/C=C/C=C/C=C(\C)[C@@H](OC3CC3)C[C@@H]3CC[C@@H](C)[C@@](O)(O3)C(=O)C(=O)N3CCCC[C@H]3C(=O)O2)CC[C@H]1OCCCS(C)(=O)=O [Compound 64] | C (C≥40% and less than 60% inhibition at 1 uM)
11 | > 800 | 0.1 to 0.8 | 300 to 800 | < 0.3 | 10 to 100 | COC1C(=O)C(C)CC/C=C/C=C/C=C(\C)C(CCO)C[C@H]2CC[C@H](C)[C@](O)(O2)C(=O)C(=O)N(C)C(C)C(=O)OC([C@H](C)C[C@@H]2CC[C@@H](OCCCS(C)(=O)=O)[C@H](OC)C2)CC(=O)C(C)/C=C(\C)C1O (stereo partly drawn) [Compound 67] | B (B>20% and less than 40% inhibition at 1 uM)
12 | > 800 | < 0.1 | < 300 | < 0.3 | 10 to 100 | CO[C@@H]1C[C@H](C[C@@H](C)[C@@H]2CC(=O)[C@H](C)/C=C(\C)[C@@H](O)[C@@H](OC)C(=O)[C@H](C)C[C@H](C)/C=C/C=C/C=C(\C)[C@@H](OCCCO)C[C@@H]3CC[C@@H](C)[C@@](O)(O3)C(=O)C(=O)N3CCCC[C@H]3C(=O)O2)CC[C@H]1OCCCS(C)(=O)=O [Compound 68] | C (C≥40% and less than 60% inhibition at 1 uM)
13 | > 800 | 0.1 to 0.8 | 300 to 800 | 0.3 to 1 | 10 to 100 | CO[C@@H]1C[C@H](C[C@@H](C)[C@@H]2CC(=O)[C@H](C)/C=C(\C)[C@@H](O)[C@@H](OC)C(=O)[C@H](C)C[C@H](C)/C=C/C=C/C=C(\C)[C@H](OCCCO)C[C@@H]3CC[C@@H](C)[C@@](O)(O3)C(=O)C(=O)N3CCCC[C@H]3C(=O)O2)CC[C@H]1OCCCS(C)(=O)=O [Compound 69] | B (B>20% and less than 40% inhibition at 1 uM)
